Measured values taken from ChEMBL document CHEMBL1201862, “PubChem BioAssay data set” (2004).
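Values below derive from 48-hour exposures of cells grown in 96-well plates, with endpoints linearly interpolated between the two concentrations bracketing the appropriate inhibition level. At the GI50, growth is halved.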 Active and inactive are the calls of the source. Rule as the data show it: active = GI50 up to about 1.1 µM and inactive = higher.

Legend:
Assay in all cases: NCI tumour cell line growth inhibition, 48 h
786-0 = test system: 786-0
A498 = test system: A498
A549 = test system: A549
ACHN = test system: ACHN
CAKI-1 = test system: CAKI-1
CCRF-CEM = test system: CCRF-CEM
COLO 205 = test system: COLO 205
DLD-1 = test system: DLD-1
DMS-114 = test system: DMS-114
DMS-273 = test system: DMS-273
EKVX = test system: EKVX
HCC 2998 = test system: HCC 2998
HCT-15 = test system: HCT-15
HL-60 = test system: HL-60
HOP-18 = test system: HOP-18
HOP-62 = test system: HOP-62
HT-29 = test system: HT-29
IGROV-1 = test system: IGROV-1
K562 = test system: K562
KM-20L2 = test system: KM-20L2
KM12 = test system: KM12
LOX IMVI = test system: LOX IMVI
LXFL 529 = test system: LXFL 529
M14 = test system: M14
M19-MEL = test system: M19-MEL
MOLT-4 = test system: MOLT-4
Malme-3M = test system: Malme-3M
NCI-H226 = test system: NCI-H226
NCI-H23 = test system: NCI-H23
NCI-H460 = test system: NCI-H460
NCI-H522 = test system: NCI-H522
OVCAR-3 = test system: OVCAR-3
OVCAR-4 = test system: OVCAR-4
OVCAR-5 = test system: OVCAR-5
OVCAR-8 = test system: OVCAR-8
RPMI-8226 = test system: RPMI-8226
RXF 631 = test system: RXF 631
SF-268 = test system: SF-268
SF-295 = test system: SF-295
SF-539 = test system: SF-539
SK-MEL-28 = test system: SK-MEL-28
SK-MEL-2 = test system: SK-MEL-2
SK-MEL-5 = test system: SK-MEL-5
SK-OV-3 = test system: SK-OV-3
SN12C = test system: SN12C
SNB-19 = test system: SNB-19
SNB-75 = test system: SNB-75
SNB-78 = test system: SNB-78
SW-620 = test system: SW-620
TK-10 = test system: TK-10
U-251 = test system: U-251
UACC-257 = test system: UACC-257
UACC-62 = test system: UACC-62
UO-31 = test system: UO-31
XF498 = test system: XF498
HCT-116 = test system: HCT-116
HOP-92 = test system: HOP-92
RXF 393 = test system: RXF 393
SR = test system: SR

CCOc1ccc2c(c1)[n+]([O-])c(-c1ccc(Br)cc1)c(N)[n+]2[O-]
GI50 (786-0): > 100 µM (inactive)
GI50 (A498): 45.3 µM (inactive)
GI50 (A549): 59.6 µM (inactive)
GI50 (ACHN): 47.2 µM (inactive)
GI50 (CAKI-1): 27.2 µM (inactive)
GI50 (CCRF-CEM): 53.1 µM (inactive)
GI50 (COLO 205): 24.2 µM (inactive)
GI50 (DLD-1): 99.5 µM (inactive)
GI50 (DMS-114): 30.4 µM (inactive)
GI50 (DMS-273): 39.4 µM (inactive)
GI50 (EKVX): 52.8 µM (inactive)
GI50 (HCC 2998): > 100 µM (inactive)
GI50 (HCT-15): 47 µM
GI50 (HL-60): 31.3 µM (inactive)
GI50 (HOP-18): 57.4 µM (inactive)
GI50 (HOP-62): 67.6 µM (inactive)
GI50 (HT-29): 64.4 µM (inactive)
GI50 (IGROV-1): 67 µM (inactive)
GI50 (K562): 75.5 µM (inactive)
GI50 (KM-20L2): 47 µM (inactive)
GI50 (KM12): 85.5 µM (inactive)
GI50 (LOX IMVI): > 100 µM (inactive)
GI50 (LXFL 529): 52.2 µM (inactive)
GI50 (M14): 49 µM (inactive)
GI50 (M19-MEL): 59.2 µM (inactive)
GI50 (MOLT-4): 40.9 µM (inactive)
GI50 (Malme-3M): 55.6 µM (inactive)
GI50 (NCI-H226): > 100 µM (inactive)
GI50 (NCI-H23): 22.8 µM (inactive)
GI50 (NCI-H460): 47.3 µM (inactive)
GI50 (NCI-H522): 16.6 µM (inactive)
GI50 (OVCAR-3): 48.1 µM (inactive)
GI50 (OVCAR-4): > 100 µM (inactive)
GI50 (OVCAR-5): > 100 µM (inactive)
GI50 (OVCAR-8): 57.7 µM (inactive)
GI50 (RPMI-8226): 52.4 µM (inactive)
GI50 (RXF 631): 56.4 µM (inactive)
GI50 (SF-268): 42.8 µM (inactive)
GI50 (SF-295): > 100 µM (inactive)
GI50 (SF-539): 34.4 µM (inactive)
GI50 (SK-MEL-28): 30.9 µM (inactive)
GI50 (SK-MEL-2): > 100 µM (inactive)
GI50 (SK-MEL-5): 20.8 µM (inactive)
GI50 (SK-OV-3): > 100 µM (inactive)
GI50 (SN12C): 71 µM (inactive)
GI50 (SNB-19): 57.3 µM (inactive)
GI50 (SNB-75): > 100 µM (inactive)
GI50 (SNB-78): > 100 µM (inactive)
GI50 (SW-620): > 100 µM (inactive)
GI50 (TK-10): > 100 µM (inactive)
GI50 (U-251): 47.3 µM (inactive)
GI50 (UACC-257): 59.4 µM (inactive)
GI50 (UACC-62): 38.1 µM (inactive)
GI50 (UO-31): 67.3 µM (inactive)
GI50 (XF498): 49.9 µM (inactive)

C[C@]12CCC3[C@@H](CC[C@@H]4c5nonc5CC[C@]34C)C1CCC2=O (some centres undefined)
GI50 (786-0): 23.8 µM (inactive)
GI50 (A498): 21.4 µM (inactive)
GI50 (A549): 27.8 µM (inactive)
GI50 (ACHN): 24.5 µM (inactive)
GI50 (CAKI-1): 22.9 µM (inactive)
GI50 (CCRF-CEM): 21.8 µM (inactive)
GI50 (COLO 205): 16.9 µM (inactive)
GI50 (DMS-114): 20.6 µM (inactive)
GI50 (DMS-273): 19.5 µM (inactive)
GI50 (EKVX): 19.9 µM (inactive)
GI50 (HCT-116): 17 µM (inactive)
GI50 (HCT-15): 29.8 µM
GI50 (HL-60): 15.7 µM (inactive)
GI50 (HOP-18): 43.9 µM (inactive)
GI50 (HOP-62): 40.6 µM (inactive)
GI50 (HOP-92): 20.8 µM (inactive)
GI50 (HT-29): 16.5 µM (inactive)
GI50 (IGROV-1): 40.6 µM (inactive)
GI50 (K562): 29.4 µM (inactive)
GI50 (KM-20L2): 25.7 µM (inactive)
GI50 (KM12): 20.7 µM (inactive)
GI50 (LOX IMVI): 19.6 µM (inactive)
GI50 (LXFL 529): 23.3 µM (inactive)
GI50 (M14): 18.3 µM (inactive)
GI50 (M19-MEL): 21.6 µM (inactive)
GI50 (MOLT-4): 23.2 µM (inactive)
GI50 (Malme-3M): 23.3 µM (inactive)
GI50 (NCI-H226): 20 µM (inactive)
GI50 (NCI-H23): 24.5 µM (inactive)
GI50 (NCI-H460): 19.2 µM (inactive)
GI50 (NCI-H522): 16.2 µM (inactive)
GI50 (OVCAR-3): 17.1 µM (inactive)
GI50 (OVCAR-4): 23.8 µM (inactive)
GI50 (OVCAR-5): 29.3 µM (inactive)
GI50 (OVCAR-8): 31.7 µM (inactive)
GI50 (RPMI-8226): 17 µM (inactive)
GI50 (RXF 393): 26.2 µM (inactive)
GI50 (RXF 631): 38.2 µM (inactive)
GI50 (SF-268): 33.6 µM (inactive)
GI50 (SF-295): 24.1 µM (inactive)
GI50 (SF-539): 20.4 µM (inactive)
GI50 (SK-MEL-28): 24.7 µM (inactive)
GI50 (SK-MEL-2): 20.3 µM (inactive)
GI50 (SK-MEL-5): 16.9 µM (inactive)
GI50 (SK-OV-3): 36.7 µM (inactive)
GI50 (SN12C): 21.5 µM (inactive)
GI50 (SNB-19): 40.4 µM (inactive)
GI50 (SNB-75): 35.4 µM (inactive)
GI50 (SNB-78): 23.2 µM (inactive)
GI50 (SW-620): 37.2 µM (inactive)
GI50 (TK-10): 29 µM (inactive)
GI50 (U-251): 16 µM (inactive)
GI50 (UACC-257): 18 µM (inactive)
GI50 (UACC-62): 17.3 µM (inactive)
GI50 (UO-31): 11.3 µM (inactive)
GI50 (XF498): 19.1 µM (inactive)

Clc1ccc(Nc2nc3ccccc3nc2-c2cccs2)cc1Cl
GI50 (786-0): 35.7 µM (inactive)
GI50 (A549): 29.9 µM (inactive)
GI50 (ACHN): 32.1 µM (inactive)
GI50 (CCRF-CEM): 27.2 µM (inactive)
GI50 (COLO 205): 26.1 µM (inactive)
GI50 (DLD-1): 36.7 µM (inactive)
GI50 (DMS-273): 34 µM (inactive)
GI50 (EKVX): 69.5 µM (inactive)
GI50 (HCC 2998): 32.1 µM (inactive)
GI50 (HCT-116): 23.4 µM (inactive)
GI50 (HCT-15): 10.3 µM
GI50 (HL-60): 12.2 µM (inactive)
GI50 (HOP-18): 97.5 µM (inactive)
GI50 (HOP-62): > 100 µM (inactive)
GI50 (HOP-92): 19.7 µM (inactive)
GI50 (HT-29): 25.3 µM (inactive)
GI50 (KM-20L2): 34.6 µM (inactive)
GI50 (LXFL 529): 38.9 µM (inactive)
GI50 (M19-MEL): 57.8 µM (inactive)
GI50 (MOLT-4): 14.8 µM (inactive)
GI50 (Malme-3M): > 100 µM (inactive)
GI50 (NCI-H226): 34.1 µM (inactive)
GI50 (NCI-H23): 37.8 µM (inactive)
GI50 (NCI-H460): 22.7 µM (inactive)
GI50 (OVCAR-3): > 100 µM (inactive)
GI50 (OVCAR-5): > 100 µM (inactive)
GI50 (OVCAR-8): 19.7 µM (inactive)
GI50 (RPMI-8226): 45.2 µM (inactive)
GI50 (RXF 393): 22.6 µM (inactive)
GI50 (RXF 631): 27.8 µM (inactive)
GI50 (SF-268): 36.3 µM (inactive)
GI50 (SF-295): 40.4 µM (inactive)
GI50 (SF-539): 45.3 µM (inactive)
GI50 (SK-MEL-28): 28.7 µM (inactive)
GI50 (SK-MEL-2): > 100 µM (inactive)
GI50 (SK-OV-3): > 100 µM (inactive)
GI50 (SN12C): 89.9 µM (inactive)
GI50 (SNB-19): 36 µM (inactive)
GI50 (SNB-75): 84.9 µM (inactive)
GI50 (SNB-78): 58.2 µM (inactive)
GI50 (SR): 22.8 µM (inactive)
GI50 (SW-620): 85.7 µM (inactive)
GI50 (TK-10): 42.1 µM (inactive)
GI50 (U-251): > 10 µM (inactive)
GI50 (UACC-257): 34.4 µM (inactive)
GI50 (UACC-62): 38.5 µM (inactive)
GI50 (UO-31): 34.8 µM (inactive)
GI50 (XF498): 62.1 µM (inactive)
